Experimental data as given in patent publication US9980965B2, “Treatment of autoimmune disease” (MingSight Pharmaceuticals, Inc., priority 2014, dated 2018).
Read-outs that look alike come from different tables or passages of the source. Marks after values point to notes of the source that are not given here.

Legend:
Human PKC gamma = Human PKC gamma (Homo sapiens, UniProt P05129); assay: In vitro PKC inhibition, PKC gamma; format: biochemical
Text: (§1) The methods for these determinations have been described (Grant, et al. 2010, Eur J Pharmacol. 627:16-25).

Human PKC iota = target: T1, Human PKC iota (Homo sapiens, UniProt P41743); assay: In vitro PKC inhibition, PKC iota; format: biochemical
T1 sequence (P41743 1-596): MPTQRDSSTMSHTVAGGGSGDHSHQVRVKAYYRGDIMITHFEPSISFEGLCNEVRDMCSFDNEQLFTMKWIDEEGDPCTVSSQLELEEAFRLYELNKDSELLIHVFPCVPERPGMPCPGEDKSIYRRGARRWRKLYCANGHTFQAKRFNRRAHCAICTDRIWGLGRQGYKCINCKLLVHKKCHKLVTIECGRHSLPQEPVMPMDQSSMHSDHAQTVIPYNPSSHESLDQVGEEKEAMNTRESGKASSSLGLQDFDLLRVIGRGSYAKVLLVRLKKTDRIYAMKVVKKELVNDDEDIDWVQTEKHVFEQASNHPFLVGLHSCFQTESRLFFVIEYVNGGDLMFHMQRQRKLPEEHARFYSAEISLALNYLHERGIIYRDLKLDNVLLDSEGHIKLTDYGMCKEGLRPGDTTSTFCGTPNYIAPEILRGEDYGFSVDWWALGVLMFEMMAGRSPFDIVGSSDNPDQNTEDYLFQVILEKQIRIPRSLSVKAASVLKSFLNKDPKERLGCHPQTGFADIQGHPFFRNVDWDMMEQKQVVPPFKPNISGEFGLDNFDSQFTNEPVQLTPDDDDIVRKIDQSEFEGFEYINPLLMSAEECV
Text: as §1

Human PKC mu = target: T2, Human PKC mu (Homo sapiens, UniProt Q15139); assay: In vitro PKC inhibition, PKC mu; format: biochemical
T2 sequence (Q15139 1-912): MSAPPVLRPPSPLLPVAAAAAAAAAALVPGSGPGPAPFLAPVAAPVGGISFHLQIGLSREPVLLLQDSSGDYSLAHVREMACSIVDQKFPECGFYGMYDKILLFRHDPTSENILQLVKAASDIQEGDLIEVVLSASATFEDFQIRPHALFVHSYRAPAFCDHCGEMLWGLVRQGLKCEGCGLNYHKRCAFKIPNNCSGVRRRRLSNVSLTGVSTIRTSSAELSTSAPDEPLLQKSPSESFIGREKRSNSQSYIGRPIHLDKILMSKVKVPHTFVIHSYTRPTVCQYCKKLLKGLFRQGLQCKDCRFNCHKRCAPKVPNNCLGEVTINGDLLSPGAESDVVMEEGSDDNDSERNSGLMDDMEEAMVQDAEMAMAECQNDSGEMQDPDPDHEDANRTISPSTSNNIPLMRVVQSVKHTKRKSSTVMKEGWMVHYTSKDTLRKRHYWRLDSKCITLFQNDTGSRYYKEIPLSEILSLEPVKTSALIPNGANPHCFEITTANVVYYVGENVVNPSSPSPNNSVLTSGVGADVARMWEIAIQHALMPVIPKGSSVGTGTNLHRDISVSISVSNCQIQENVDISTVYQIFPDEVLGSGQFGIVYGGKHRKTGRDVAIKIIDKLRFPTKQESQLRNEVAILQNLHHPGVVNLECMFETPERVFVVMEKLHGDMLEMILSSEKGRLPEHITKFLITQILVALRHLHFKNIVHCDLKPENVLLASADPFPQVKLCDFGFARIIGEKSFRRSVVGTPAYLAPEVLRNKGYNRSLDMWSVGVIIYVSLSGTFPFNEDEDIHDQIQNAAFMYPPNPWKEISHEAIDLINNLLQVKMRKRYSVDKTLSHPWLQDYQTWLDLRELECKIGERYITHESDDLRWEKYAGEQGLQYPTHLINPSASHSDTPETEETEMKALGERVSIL
Text: as §1

[1] = tested on: EAE induced by MBP69-88/CFA immunization and pertussis toxin injection; format: in vivo, Lewis rats; settings: for Median day of onset (all rats) / Mean day of onset +/− SEM (sick rats) / EAE incidence (%): p.o.; for Median day of onset (all rats): vehicle 9.0; for Mean day of onset +/− SEM (sick rats): vehicle 9.3 +/− 0.6; for EAE incidence (%): vehicle 100.0%
Human PKC delta = Human PKC delta (Homo sapiens, UniProt Q05655); assay: In vitro PKC inhibition, PKC delta; format: biochemical
Sequence of Human PKC delta (Q05655 whole entry): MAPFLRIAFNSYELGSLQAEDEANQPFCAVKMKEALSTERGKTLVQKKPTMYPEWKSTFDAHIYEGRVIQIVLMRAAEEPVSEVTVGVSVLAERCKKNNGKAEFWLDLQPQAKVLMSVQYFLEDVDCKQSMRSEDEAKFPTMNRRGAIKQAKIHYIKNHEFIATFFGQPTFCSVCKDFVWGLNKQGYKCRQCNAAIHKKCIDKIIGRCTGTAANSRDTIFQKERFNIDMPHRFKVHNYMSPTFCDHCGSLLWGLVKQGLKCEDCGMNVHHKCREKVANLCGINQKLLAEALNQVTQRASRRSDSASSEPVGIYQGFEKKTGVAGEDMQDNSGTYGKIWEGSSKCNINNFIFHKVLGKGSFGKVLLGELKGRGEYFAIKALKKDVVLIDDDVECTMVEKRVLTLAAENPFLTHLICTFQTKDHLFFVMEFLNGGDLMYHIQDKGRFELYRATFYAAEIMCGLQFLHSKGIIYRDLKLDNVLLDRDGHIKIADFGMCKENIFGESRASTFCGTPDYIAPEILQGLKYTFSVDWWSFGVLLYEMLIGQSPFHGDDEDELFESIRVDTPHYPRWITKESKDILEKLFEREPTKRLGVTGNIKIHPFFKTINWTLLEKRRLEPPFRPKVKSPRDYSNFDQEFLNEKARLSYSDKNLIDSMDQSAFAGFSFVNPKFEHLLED
Text: as §1

Human PKC betaI = Human PKC betaI (Homo sapiens, UniProt P05771); assay: In vitro PKC inhibition, PKC betaI; format: biochemical
Sequence of Human PKC betaI (P05771 whole entry): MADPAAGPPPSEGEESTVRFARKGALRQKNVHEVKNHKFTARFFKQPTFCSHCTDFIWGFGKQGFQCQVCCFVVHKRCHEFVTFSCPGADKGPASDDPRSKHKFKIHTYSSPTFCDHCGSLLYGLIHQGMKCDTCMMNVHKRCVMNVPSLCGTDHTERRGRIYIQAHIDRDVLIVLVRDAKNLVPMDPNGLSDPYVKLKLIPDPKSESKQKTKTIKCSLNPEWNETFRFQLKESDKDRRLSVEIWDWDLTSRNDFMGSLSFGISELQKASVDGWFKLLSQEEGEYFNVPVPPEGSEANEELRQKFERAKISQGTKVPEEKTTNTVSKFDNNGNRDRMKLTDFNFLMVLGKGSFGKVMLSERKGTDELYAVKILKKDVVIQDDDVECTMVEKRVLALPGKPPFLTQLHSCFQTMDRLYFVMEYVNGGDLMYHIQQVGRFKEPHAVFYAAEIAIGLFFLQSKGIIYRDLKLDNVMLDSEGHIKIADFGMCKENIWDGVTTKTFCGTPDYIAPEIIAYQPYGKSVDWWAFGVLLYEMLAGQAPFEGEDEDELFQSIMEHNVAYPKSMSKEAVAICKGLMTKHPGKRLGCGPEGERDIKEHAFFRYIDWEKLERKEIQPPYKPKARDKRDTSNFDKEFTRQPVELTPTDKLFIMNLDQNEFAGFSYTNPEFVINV

Human PKC betaII = Human PKC betaII (Homo sapiens, UniProt P05771); assay: In vitro PKC inhibition, PKC betaII; format: biochemical
Sequence of Human PKC betaII (P05771 1-673 isoform P05771-2): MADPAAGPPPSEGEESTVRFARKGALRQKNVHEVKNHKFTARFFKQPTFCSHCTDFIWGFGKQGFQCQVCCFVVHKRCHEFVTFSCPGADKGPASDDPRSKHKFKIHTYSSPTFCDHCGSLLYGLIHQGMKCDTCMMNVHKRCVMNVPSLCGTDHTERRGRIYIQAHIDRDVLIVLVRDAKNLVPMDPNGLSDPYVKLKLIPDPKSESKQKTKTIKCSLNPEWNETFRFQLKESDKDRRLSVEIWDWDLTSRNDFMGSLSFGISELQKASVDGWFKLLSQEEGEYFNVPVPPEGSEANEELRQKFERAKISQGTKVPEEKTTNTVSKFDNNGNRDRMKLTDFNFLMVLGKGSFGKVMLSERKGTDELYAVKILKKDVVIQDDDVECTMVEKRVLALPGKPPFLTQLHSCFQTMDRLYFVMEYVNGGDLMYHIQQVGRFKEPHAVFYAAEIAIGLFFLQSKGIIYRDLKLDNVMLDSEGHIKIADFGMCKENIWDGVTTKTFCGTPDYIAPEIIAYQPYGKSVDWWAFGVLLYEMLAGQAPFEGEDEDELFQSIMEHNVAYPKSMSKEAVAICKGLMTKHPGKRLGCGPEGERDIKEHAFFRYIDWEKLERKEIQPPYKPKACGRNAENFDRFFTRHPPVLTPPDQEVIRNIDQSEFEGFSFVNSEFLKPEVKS

pSHP2 (PKCβ cell assay) = assay: pSHP2 (PKCβ cell assay); format: cell-based
Text: as §1

[2] = Separate pharmacokinetics experiments in mice; format: in vivo; settings: 60 mg/kg dose, oral
[3] = 15 and 30 mg/kg BID, compared to the vehicle control group

## Cc1ncc(F)c(Nc2n[nH]c3c2CN(C(=O)N2C[C@@H](C)N(CC4CCOCC4)C[C@@H]2C)C3(C)C)n1 [Compound A, 5-{[(2S,5R)-2,5-Dimethyl-4-(tetrahydro-2H-pyran-4-ylmethyl)piperazin-1-yl]carbonyl}-N-(5-fluoro-2-methylpyrimidin-4-yl)-6,6-dimethyl-1,4,5,6-tetrahydropyrrolo[3,4-c]pyrazol-3-amine]
Human PKC gamma
  IC50: 57.5 nM
Human PKC iota
  IC50: > 1000 nM
Human PKC mu
  IC50: 314 nM
[1]; 7.5 mg/kg, BID
  Median day of onset (all rats): 9.0 days
  Mean day of onset +/− SEM (sick rats): 9.0 ± 0.5 days
  EAE incidence (%): 100.0%
[1]; 15 mg/kg, BID
  Median day of onset (all rats): 8.0 days
  Mean day of onset +/− SEM (sick rats): 8.5 ± 0.4 days
  EAE incidence (%): 100.0%
[1]; 30 mg/kg, BID
  Mean day of onset +/− SEM (sick rats): 9.0 ± 0.9 days
[1]; 30 mg/kg, BID, p < 0.05 vs. vehicle
  EAE incidence (%): 50.0%*
[1]; 7.5, 15 and 30 mg/kg BID
  clinical score (EAE): dose-dependent decrease
[1]; [3]
  end severity (FIG. 5): significantly reduced
  maximum EAE severity (FIG. 5): significantly reduced
[1]; highest dose (30 mg/kg BID)
  EAE incidence (in words): significantly reduced
[1]; highest dose employed (30 mg/kg BID) vs. FTY720 0.5 mg/kg QD
  efficacy compared with fingolimod: appeared superior to fingolimod
Human PKC delta
  IC50: > 1000 nM
  inhibition of PKC delta (in words): does not significantly inhibit
Human PKC betaI
  IC50: 8.1 nM
Human PKC betaII
  IC50: 7.6 nM
Human PKC betaII; recombinant PKC beta (betaII in Table 1)
  Ki: 5.3 nM
pSHP2 (PKCβ cell assay)
  IC50: 9.8 nM
[2]
  exposure in mice: unexpectedly low and insufficient exposure

## CCCCCCCCc1ccc(CCC(N)(CO)CO)cc1 [FTY720, fingolimod, reference compound]
[1]; 0.5 mg/kg, QD
  Median day of onset (all rats): 8.0 days
  Mean day of onset +/− SEM (sick rats): 8.0 ± 0.3 days
